From US20100311729A1, “Substituted imidazopyridazines and pyrrolopyrimidines as lipid kinase inhibitors” (priority 2007, published 2010) come the findings set out here.

pIC50: −log10 of the molar value.

Holding throughout (assay type): biochemical
The target of one test is T1, PI3K gamma (Homo sapiens, UniProt P48736).
T1 construct: PI3Kγ BV-950 p110g(D144aa)-C-Term His Tag; His tag (C); made in house; host or cells: construct from the Roger Williams lab (MRC LMB) in pVL1393; baculovirus; Tn5 (Trichoplusia ni) or TiniPro insect cells
Kind of test: PI3 kinase assay (Kinase-Glo luminescence), PI3K gamma. To be noted: Enzymatic Data; read-out: PI3K gamma IC50 [umol]. Put shortly: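 Percent inhibition at eight concentrations (typically 10 to 0.003 […]) fitted to a four-parameter logistic model to give IC50. Reaction initiated with ATP; final ATP 1 μM and phosphatidylinositol 10 μg/mL; ATP consumption read by Kinase-Glo luminescence.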
On the technique in general: Kinase-Glo reads ATP consumption through a luciferase reaction.

The next test concerns the target T2, PI3K beta (Homo sapiens, UniProt P42338).
T2 construct: for the full-length p110-b subunit are generated and fused by overlapping PCR; His tag (C); made in house; host or cells: baculovirus; Tn5 (Trichoplusia ni) or TiniPro insect cells
Description: PI3 kinase assay (Kinase-Glo luminescence), PI3K beta. To be noted: Enzymatic Data; read-out: PI3K beta IC50 [umol]. In outline: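 PI3Kβ (25 nM, BV-949) with 10 μg/mL phosphatidylinositol in Tris pH 7.5/MgCl2/NaCl/CHAPS/DTT buffer; reaction started with 1 μM ATP, 60 min at room temperature. ATP depletion read by Kinase-Glo luminescence; 8-point dilutions, IC50 by four-parameter logistic fit.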

The next test addresses T3, PI3K delta (Homo sapiens, UniProt O00329).
T3 construct: for the full-length p110-d subunit are generated and fused by overlapping PCR; His tag (C); made in house; host or cells: baculovirus; Tn5 (Trichoplusia ni) or TiniPro insect cells
Description: PI3 kinase assay (Kinase-Glo luminescence), PI3K delta. To be noted: Enzymatic Data; read-out: PI3K delta IC50 [umol]. In outline: (§1)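 Recombinant PI3K constructs (alfa 10 nM, delta 10 nM, gamma 150 nM) with 1 μM ATP and 10 μg/mL phosphatidylinositol in Tris pH 7.5, MgCl2, NaCl, CHAPS, DTT; 60 min (alfa, delta) or 120 min (gamma) at room temperature. ATP depletion read by Kinase-Glo luminescence; IC50 from 4-parameter logistic fit over 8 concentrations.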

The target of a further test is T4, PI3K alfa (Homo sapiens, UniProt P42336).
T4 construct: for the p110-a subunit (with a deletion of the first 20 amino acids); His tag (C); made in house; host or cells: baculovirus; Tn5 (Trichoplusia ni) or TiniPro insect cells
Kind of test: PI3 kinase assay (Kinase-Glo luminescence), PI3K alfa. As to conditions: Enzymatic Data; read-out: PI3K alfa IC50 [umol]. Put shortly:
as §1

T1 sequence (P48736 144-1102 limits assumed): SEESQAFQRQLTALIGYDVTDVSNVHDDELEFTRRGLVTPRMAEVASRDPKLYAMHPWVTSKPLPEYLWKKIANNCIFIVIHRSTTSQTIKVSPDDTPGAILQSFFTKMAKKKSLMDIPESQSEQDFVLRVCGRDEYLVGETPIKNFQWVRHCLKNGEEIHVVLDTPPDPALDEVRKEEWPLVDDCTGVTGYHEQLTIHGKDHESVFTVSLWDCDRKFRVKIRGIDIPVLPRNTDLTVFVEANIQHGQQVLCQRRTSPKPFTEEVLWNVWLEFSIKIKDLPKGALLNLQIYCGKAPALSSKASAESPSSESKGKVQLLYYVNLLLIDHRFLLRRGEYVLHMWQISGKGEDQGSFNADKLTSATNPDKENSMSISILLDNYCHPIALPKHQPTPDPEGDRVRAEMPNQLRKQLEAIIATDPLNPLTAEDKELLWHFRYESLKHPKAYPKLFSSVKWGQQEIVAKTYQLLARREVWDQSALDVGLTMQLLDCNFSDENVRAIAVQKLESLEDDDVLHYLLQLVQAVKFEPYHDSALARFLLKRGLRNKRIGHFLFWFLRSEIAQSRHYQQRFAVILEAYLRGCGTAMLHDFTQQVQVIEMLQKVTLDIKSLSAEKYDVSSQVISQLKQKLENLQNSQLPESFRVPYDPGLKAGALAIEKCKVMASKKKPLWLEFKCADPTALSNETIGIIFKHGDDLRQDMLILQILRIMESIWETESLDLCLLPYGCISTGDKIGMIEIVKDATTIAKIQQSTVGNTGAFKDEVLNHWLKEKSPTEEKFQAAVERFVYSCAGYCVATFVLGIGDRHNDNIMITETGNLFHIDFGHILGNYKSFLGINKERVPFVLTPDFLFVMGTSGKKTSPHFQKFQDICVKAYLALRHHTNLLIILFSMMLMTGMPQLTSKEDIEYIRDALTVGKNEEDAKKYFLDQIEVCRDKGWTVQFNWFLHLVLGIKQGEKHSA
T2 sequence (P42338 with tags, fused parts or gaps limits assumed): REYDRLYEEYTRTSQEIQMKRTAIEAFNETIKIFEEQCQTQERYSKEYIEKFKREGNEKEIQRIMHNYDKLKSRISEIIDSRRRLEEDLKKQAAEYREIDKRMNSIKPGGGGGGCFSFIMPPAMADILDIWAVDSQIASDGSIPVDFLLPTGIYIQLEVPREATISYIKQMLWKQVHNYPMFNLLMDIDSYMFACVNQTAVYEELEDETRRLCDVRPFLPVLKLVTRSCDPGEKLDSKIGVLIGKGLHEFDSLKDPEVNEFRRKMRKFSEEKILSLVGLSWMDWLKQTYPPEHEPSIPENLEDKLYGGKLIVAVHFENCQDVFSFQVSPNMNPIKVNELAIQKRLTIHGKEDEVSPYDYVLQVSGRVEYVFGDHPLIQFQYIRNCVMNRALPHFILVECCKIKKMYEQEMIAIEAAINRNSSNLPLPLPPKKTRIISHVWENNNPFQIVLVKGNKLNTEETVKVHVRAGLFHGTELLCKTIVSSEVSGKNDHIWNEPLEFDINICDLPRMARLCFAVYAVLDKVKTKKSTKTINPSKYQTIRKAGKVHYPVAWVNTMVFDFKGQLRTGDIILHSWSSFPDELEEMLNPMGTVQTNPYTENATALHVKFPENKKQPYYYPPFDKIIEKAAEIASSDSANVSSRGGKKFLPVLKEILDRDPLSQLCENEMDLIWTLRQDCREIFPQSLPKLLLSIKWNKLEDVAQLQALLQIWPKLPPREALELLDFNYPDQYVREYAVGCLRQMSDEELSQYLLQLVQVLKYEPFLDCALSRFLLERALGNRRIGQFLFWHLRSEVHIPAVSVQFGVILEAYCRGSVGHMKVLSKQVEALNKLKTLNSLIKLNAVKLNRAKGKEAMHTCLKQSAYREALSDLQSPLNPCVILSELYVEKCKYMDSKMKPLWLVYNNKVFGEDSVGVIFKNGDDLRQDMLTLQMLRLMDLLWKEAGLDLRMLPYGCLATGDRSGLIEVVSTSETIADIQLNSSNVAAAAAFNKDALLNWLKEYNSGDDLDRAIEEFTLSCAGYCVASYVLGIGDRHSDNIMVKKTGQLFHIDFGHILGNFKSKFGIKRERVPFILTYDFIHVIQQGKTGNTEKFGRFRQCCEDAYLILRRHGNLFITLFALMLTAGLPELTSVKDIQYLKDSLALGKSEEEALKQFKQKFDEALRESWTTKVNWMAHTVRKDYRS
T3 sequence (O00329 with tags, fused parts or gaps limits assumed): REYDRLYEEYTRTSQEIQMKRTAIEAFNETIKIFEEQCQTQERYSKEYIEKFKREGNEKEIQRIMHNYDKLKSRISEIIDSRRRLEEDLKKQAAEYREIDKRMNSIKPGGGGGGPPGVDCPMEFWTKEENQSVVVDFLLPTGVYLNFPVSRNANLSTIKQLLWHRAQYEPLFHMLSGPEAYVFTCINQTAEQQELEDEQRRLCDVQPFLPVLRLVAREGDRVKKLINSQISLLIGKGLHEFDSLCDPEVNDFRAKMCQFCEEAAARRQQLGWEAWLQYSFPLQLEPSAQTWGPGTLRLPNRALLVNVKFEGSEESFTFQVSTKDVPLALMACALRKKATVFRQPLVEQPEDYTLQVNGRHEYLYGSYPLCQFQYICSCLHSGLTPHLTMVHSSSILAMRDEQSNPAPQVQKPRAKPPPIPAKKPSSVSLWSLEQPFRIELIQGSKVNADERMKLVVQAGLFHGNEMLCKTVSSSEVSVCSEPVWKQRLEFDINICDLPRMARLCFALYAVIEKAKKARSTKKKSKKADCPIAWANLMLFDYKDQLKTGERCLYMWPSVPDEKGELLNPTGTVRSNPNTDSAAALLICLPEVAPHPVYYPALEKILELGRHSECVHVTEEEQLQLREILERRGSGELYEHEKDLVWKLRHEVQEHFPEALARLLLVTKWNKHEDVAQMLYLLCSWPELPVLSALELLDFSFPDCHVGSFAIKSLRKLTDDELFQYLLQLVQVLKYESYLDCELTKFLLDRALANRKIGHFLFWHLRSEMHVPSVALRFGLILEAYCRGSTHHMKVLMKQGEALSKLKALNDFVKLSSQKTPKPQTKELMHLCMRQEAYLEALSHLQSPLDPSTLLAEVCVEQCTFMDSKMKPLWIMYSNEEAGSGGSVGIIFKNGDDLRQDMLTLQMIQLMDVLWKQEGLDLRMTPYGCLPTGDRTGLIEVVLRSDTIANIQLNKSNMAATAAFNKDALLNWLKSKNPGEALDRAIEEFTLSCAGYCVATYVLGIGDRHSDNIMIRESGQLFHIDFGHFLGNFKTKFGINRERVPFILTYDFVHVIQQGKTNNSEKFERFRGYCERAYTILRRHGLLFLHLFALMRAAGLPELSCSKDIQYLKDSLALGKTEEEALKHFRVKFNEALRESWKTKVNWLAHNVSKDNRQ
T4 sequence (P42336 with tags, fused parts or gaps limits assumed): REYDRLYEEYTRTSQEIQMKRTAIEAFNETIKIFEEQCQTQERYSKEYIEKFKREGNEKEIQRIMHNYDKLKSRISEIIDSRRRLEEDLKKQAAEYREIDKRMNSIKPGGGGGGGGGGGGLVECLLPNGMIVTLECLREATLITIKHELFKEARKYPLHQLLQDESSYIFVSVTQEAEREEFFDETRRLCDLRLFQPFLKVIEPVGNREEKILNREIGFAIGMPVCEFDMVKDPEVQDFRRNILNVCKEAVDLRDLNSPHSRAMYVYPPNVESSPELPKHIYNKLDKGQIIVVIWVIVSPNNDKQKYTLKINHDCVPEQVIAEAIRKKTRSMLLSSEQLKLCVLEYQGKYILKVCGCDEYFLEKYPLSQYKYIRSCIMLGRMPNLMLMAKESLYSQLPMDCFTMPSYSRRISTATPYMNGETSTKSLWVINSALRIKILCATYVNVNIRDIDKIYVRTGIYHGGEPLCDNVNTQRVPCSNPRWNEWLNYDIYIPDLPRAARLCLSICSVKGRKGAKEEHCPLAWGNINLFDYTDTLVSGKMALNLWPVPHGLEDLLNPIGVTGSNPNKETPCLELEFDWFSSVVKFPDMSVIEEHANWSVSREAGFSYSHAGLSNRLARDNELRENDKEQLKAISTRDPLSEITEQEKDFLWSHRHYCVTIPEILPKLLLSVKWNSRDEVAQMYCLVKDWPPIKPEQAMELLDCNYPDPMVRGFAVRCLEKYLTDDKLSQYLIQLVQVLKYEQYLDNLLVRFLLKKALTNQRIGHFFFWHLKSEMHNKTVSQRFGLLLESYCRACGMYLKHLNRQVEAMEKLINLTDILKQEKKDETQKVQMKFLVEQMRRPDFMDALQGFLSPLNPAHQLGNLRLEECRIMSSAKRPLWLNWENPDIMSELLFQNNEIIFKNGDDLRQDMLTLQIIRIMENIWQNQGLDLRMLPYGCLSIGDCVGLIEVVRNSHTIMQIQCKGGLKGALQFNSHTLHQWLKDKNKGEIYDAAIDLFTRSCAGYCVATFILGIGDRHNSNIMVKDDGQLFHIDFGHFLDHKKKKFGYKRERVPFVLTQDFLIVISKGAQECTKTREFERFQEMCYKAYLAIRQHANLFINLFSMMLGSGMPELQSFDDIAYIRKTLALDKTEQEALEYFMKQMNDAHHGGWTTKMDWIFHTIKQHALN

As to `COc1cc(-c2ccc3ncc(-c4cnc(N)c(C(F)(F)F)c4)n3n2)ccc1OCCNC(=O)C(C)C` [Example 60, N-(2-{4-[3-(6-Amino-5-trifluoro-methyl-pyridin-3-yl)-imidazo [1,2-b]pyridazin-6-yl]-2-methoxy-phenoxy}-ethyl)-isobutyr-amide], the pIC50 is 6.80 at PI3K gamma, 6.57 at PI3K beta, 6.65 at PI3K delta and 7.44 at PI3K alfa.
The matching figures for `COc1cc(-c2ccc3ncc(-c4cnc(N)c(C(F)(F)F)c4)n3n2)ccc1OCCNC(=O)C1CC1` [Example 61, Cyclo-propane-carboxylic acid (2-{4-[3-(6-amino-5-trifIuoro-methyl-pyridin-3-yl)-imidazo [1,2-b)pyridazin-6-yl]-2-methoxy-phenoxy}-ethyl)-amide]: 6.05, 6.00, 6.37 and 6.69.
The matching figures for `COc1cc(-c2ccc3ncc(-c4cnc(N)c(C(F)(F)F)c4)n3n2)ccc1OCCNC(C)=O` [Example 62, N-(2-{4-[3-(6-Amino-5-trifluoro-methyl-pyridin-3-yl)-imidazo[1,2-b]pyridazin-6-yl]-2-methoxy-phenoxy}-ethyl)-acetamide]: 5.87, 6.81, 6.86 and 7.55.
In the same order, the values of `NCCCOc1ccc(-c2ccc3ncc(-c4cnc(N)c(C(F)(F)F)c4)n3n2)cc1OC(F)(F)F` [Example 63, 5-{6-[4-(3-Amino-propoxy)-3-trifluoro-methoxy-phenyl]-imidazo [1,2-b]pyridazin-3-yl}-3-trifluoro-methyl-pyridin-2-ylamine] are 7.41, 6.75, 6.74 and 6.82.
With `CC(C)C(=O)NCCCOc1ccc(-c2ccc3ncc(-c4cnc(N)c(C(F)(F)F)c4)n3n2)cc1OC(F)(F)F` [Example 64, N-(3-{4-[3-(6-Amino-5-trifluoro-methyl-pyridin-3-yl)-imidazo [1,2-b]pyridazin-6-yl]-2-trifluoro-methoxy-phenoxy}-propyl)-iso-butyramide], the pIC50 at PI3K gamma was 6.50; on PI3K beta, below 5.04; on PI3K delta, 5.17; on PI3K alfa, 6.25.
For `COc1cc(-c2ccc3ncc(-c4cnc(N)c(C(F)(F)F)c4)n3n2)ccc1OCCCNC(=O)C1CC1` [Example 65], the pIC50 at PI3K gamma was 6.32; on PI3K beta it was 6.30; on PI3K delta it was 6.46; on PI3K alfa it was 7.59.
As to `Nc1cnc(-c2cnc3ccc(-c4cnc(N)c(C(F)(F)F)c4)nn23)cn1` [Example 66, 5-[6-(6-Amino-5-trifluoro-methyl-pyridin-3-yl)-imidazo [1,2-b]pyridazin-3-yl]-pyrazin-2-ylamine], the pIC50 at PI3K gamma is 6.32; on PI3K beta it was 8.52; at PI3K delta, 7.77; at PI3K alfa, 8.10.
On to `COc1nc(-c2cnc3ccc(-c4cnc(N)c(C(F)(F)F)c4)nn23)cnc1N` [Example 67, 5-[6-(6-Amino-5-trifIuoro-methyl-pyridin-3-yl)-imidazo[1,2-b]pyridazin-3-yl]-3-methoxy-pyrazin-2-ylamine], for which the pIC50 was 5.58 on PI3K gamma, 7.68 on PI3K beta, 7.07 at PI3K delta and 7.47 on PI3K alfa.
Consider `COc1ccc(-c2ccc3ncc(-c4cnc(N)c(OC)n4)n3n2)cc1OC` [Example 68, 5-[6-(3,4-Dimethoxy-phenyl)-imidazo [1,2-b]pyridazin-3-yl]-3-methoxy-pyrazin-2-ylamine], for which the pIC50 at PI3K gamma was 5.89; at PI3K beta, 7.29; at PI3K delta it was 7.59; on PI3K alfa, 8.05.
`CC(C)(C)OC(=O)NCCn1cc(-c2ccc3ncc(-c4cnc(N)c(C(F)(F)F)c4)n3n2)ccc1=O` [Example 69, (2-{5-[3-(6-Amino-5-trifluoro-methyl-pyridin-3-yl)-imidazo [1,2-b]pyridazin-6-yl]-2-oxo-2H-pyridin-1-yl}-ethyl)-carbamic acid tert-butyl ester]: the pIC50 was 5.61 on PI3K gamma, 5.84 at PI3K beta, 6.81 on PI3K delta and 7.30 at PI3K alfa.
As for `NCCn1cc(-c2ccc3ncc(-c4cnc(N)c(C(F)(F)F)c4)n3n2)ccc1=O` [Example 70, 1-(2-Amino-ethyl)-5-[3-(6-amino-5-trifluoro-methyl-pyridin-3-yl)-imidazo [1,2-b]pyridazin-6-yl]-1H-pyridin-2-one], the pIC50 on PI3K gamma was 6.31; on PI3K beta it was 7.31; on PI3K delta it was 7.20; at PI3K alfa, 7.24.
The matching figures for `CC(=O)NCCCOc1ccc(-c2ccc3ncc(-c4cnc(N)c(C(F)(F)F)c4)n3n2)cc1` [Example 71, N-(3-{4-[3-(6-Amino-5-trifluoro-methyl-pyridin-3-yl)-imidazo [1,2-b]pyridazin-6-yl]-phenoxy}-propyl)-acetamide]: 5.07, 5.58, 6.13 and 6.77.
The matching figures for `CC(C)S(=O)(=O)c1ccc(-c2cnc3ccc(-c4cnc(N)c(C(F)(F)F)c4)nn23)cc1` [Example 72, 5-{3-[4-(Propane-2-sulfonyl)-phenyl]-imidazo[1,2-b]pyridazin-6-yl}-3-trifluoro-methyl-pyridin-2-lamine]: 5.70, 6.63, 7.25 and 7.55.
In the case of `CC(C)(C)OC(=O)NCCOc1ccc(-c2ccc3ncc(-c4cnc(N)c(C(F)(F)F)c4)n3n2)cc1` [Example 73, (2-{4-[3-(6-Amino-5-trifluoro-methyl-pyridin-3-yl)-imidazo [1,2-b]pyridazin-6-yl]-phenoxy}-ethyl)-carbamic acid tert-butyl ester], the pIC50 at PI3K gamma is below 5.04; on PI3K beta, below 5.04; on PI3K delta, 5.40; at PI3K alfa, 6.14.
On to `NCCOc1ccc(-c2ccc3ncc(-c4cnc(N)c(C(F)(F)F)c4)n3n2)cc1` [Example 74, 5-{6-[4-(2-Amino-ethoxy)-phenyl]-imidazo [1,2-b]pyridazin-3-yl}-3-trifluoro-methyl-pyridin-2-ylamine], for which the pIC50 on PI3K gamma is 5.84; on PI3K beta, 6.83; at PI3K delta it was 6.79; at PI3K alfa it was 6.80.
The matching figures for `CC(=O)NCCOc1ccc(-c2ccc3ncc(-c4cnc(N)c(C(F)(F)F)c4)n3n2)cc1` [Example 75, N-(2-{4-[3-(6-Amino-5-trifluoro-methyl-pyridin-3-yl)-imidazo [1,2-b]pyridazin-6-yl]-phenoxy}-ethyl)-acetamide]: 5.51, 6.19, 6.87 and 7.12.
Take `CC(=O)NCCn1cc(-c2ccc3ncc(-c4cnc(N)c(C(F)(F)F)c4)n3n2)ccc1=O` [Example 76, N-(2-{5-[3-(6-Amino-5-trifluoro-methyl-pyridin-3-yl)-imidazo [1,2-b]pyridazin-6-yl]-2-oxo-2H-pyridin-1-yl}-ethyl)-acetamide]: the pIC50 at PI3K gamma was 5.49; at PI3K beta it was 6.17; on PI3K delta, 6.82; at PI3K alfa it was 6.80.
`COc1cccc(-c2ccc3ncc(-c4cnc(N)c(C(F)(F)F)c4)n3n2)c1` [Example 77, 5-[6-(3-Methoxy-phenyl)-imidazo [1,2-b]pyridazin-3-yl]-3-trifluoro-methyl-pyridin-2-ylamine]: the pIC50 is 5.59 at PI3K gamma, 5.95 at PI3K beta, 6.21 on PI3K delta and 6.72 on PI3K alfa.
For the compound `COc1cccc(-c2ccc3ncc(-c4cnc5[nH]ccc5c4)n3n2)c1` [Example 78, 6-(3-Methoxy-phenyl)-3-{1H-pyrrolo [2.3-b]pyridin-5-yl)-imidazo [1,2-b] pyridazine], the pIC50 was 5.39 at PI3K gamma, 5.69 on PI3K beta, 5.98 at PI3K delta and 6.89 at PI3K alfa.
In the same order, the values of `Nc1ncc(-c2ccc3ncc(-c4ccc(C(=O)NCCN5CCOCC5)cc4)n3n2)cc1C(F)(F)F` [Example 80, 4-[6-(6-Amino-5-trifluoro-methyl-pyridin-3-yl)-imidazo [1,2-b]pyridazin-3-yl]-N-(2-morpholin-4-yl-ethyl)-benzamide] are 5.94, 6.68, 7.24 and 7.82.
